The record followed here is patent publication US20140023715A1, “POLYMER CONJUGATES TARGETING CELLS AND METHODS RELATED THERETO” (EMORY UNIVERSITY, priority 2011, published 2014).

Broadly, the viability is a read-out of living cells in per cent, often relative to untreated cells. One may read the IC50 as the concentration at which inhibition is half-maximal.

One experiment relates to MIA PaCa-2 cells. Nature of the experiment: Cell proliferation, Crystal violet assay, 96 h. It counts as cell-based. Particulars: Homo sapiens.
Experiment [1] concerns MIA PaCa-2 orthotopic pancreatic tumor. The experiment can be described thus: Tumor growth inhibition in mice bearing orthotopic MIA PaCa-2 pancreatic cancer. The experiment is classed as in vivo. The note with it: i.v., gemcitabine-equivalent 2 mg/kg, five times. How it is done:
(a) Mean tumor weight (blue bar) of non-, gemcitabine-, Gem-IONP, and ATF-Gem-IONPs treated MIA PaCa-2 bearing mice and individual weight distribution in every group (various symbols). Mice were given by i.v. injection of gemcitabine-equivalent dose of 2 mg/kg five times at 3- or 4-day intervals. At the end of the experimental period, tumor tissues were isolated and weighed. Values represent mean±S.D. for 16 mice. *Statistically significant difference vs. control, p<0.0001. **Statistically significant difference vs. gemcitabine and […] groups, p<0.05. (b) Representative tumor images of each group after dissection.
The tumor growth inhibition effect of ATF-Gem-IONPs was studied using female mice bearing orthotopical pancreatic cancer from an uPAR positive human pancreatic cancer cell line, MIA PaCa-2. NPs were administered five times at twice a week and the dose of ATF-Gem-IONPs was calculated based on gemcitabine-equivalence. Tumors were weighed at the end of the experiment, and average tumor weight was compared between groups (FIG. 4A). All of treated groups inhibited tumor growth compared to non-treated control group. […] Tumor weights agreed well tumor volumes results (FIG. 4B).

SMILES strings stand for the structures.

With `Nc1ccn([C@@H]2O[C@H](CO)[C@@H](O)C2(F)F)c(=O)n1` [gemcitabine], in the experiment with MIA PaCa-2 cells (gemcitabine equivalent concentration of 1 μM), the viability at 1 µM came to 39%. In the experiment with MIA PaCa-2 cells (gemcitabine-equivalent), the IC50 was 498 nM. In addition, in experiment [1], the “tumor growth inhibition compared to non-treated control (tumor weight)” value turned out to be 30%.
